Results published in patent US20100323033A1, “CANCER SENSITIZER COMPRISING CHLOROGENIC ACID” (priority 2007, published 2010).

Test system: Human pancreatic carcinoma cell line AsPC-1 (doxorubicin resistant)
Assay: XTT assay of anticancer agent sensitivity in doxorubicin-resistant AsPC-1 cells
Format: cell-based
Conditions: 48 hrs, FIG. 1
Protocol: Human pancreatic carcinoma cell line AsPC-1 (doxorubicin resistant) was purchased from ATCC (American Type Culture Collection, Manassas, Va., USA). AsPC-1 cell lines were maintained in media supplemented with 10% fetal bovine serum (Gibco BRL) at 37° C. in a humid 5% CO2 atmosphere, and subcultured every two or three days. XTT assay was conducted to examine whether chlorogenic acid increases the anticancer agent sensitivity. A modified MTT assay, XTT assay is a colorimetric method that determines the relative number of living cells, after treating cells with a compound degraded by a specific enzyme. AsPC-1 cells were seeded in 96-well plates (2×10^4 per well), and cultured for 24 hrs. The cells were treated with 0, 5, and 10 μM of doxorubicin, and 0, 5, 10, and […] of chlorogenic acid, and incubated for 48 hrs. 0.1 ml of active solution and 5 ml of XTT (2,3-Bis{2-methoxy-4-nitro-5[(sulfenylamino) carbonyl]-2H-tetrazolium-hydroxide}) were added to the 96-well plates, and 50 μl of reaction solution was added to each well, followed by incubation for 2 hrs. The plates were gently shaken for staining, and the absorbance was measured at 450 nm using a VERSAmax220 Automatic Microplate Reader (Molecular Devices Corp.).

O=C(/C=C/c1ccc(O)c(O)c1)O[C@@H]1C[C@](O)(C(=O)O)C[C@@H](O)[C@H]1O [chlorogenic acid, 3-[[3-(3,4-dihydroxyphenyl)-1-oxo-2-propenyl]oxy]-1,4,5-trihydroxycyclohexanecarboxylic acid]
dependence of cancer cell viability on chlorogenic acid concentration (combination with doxorubicin): decreased, as the concentration of chlorogenic acid was increased
decrease of viability of cancer cells with chlorogenic acid plus anticancer agent, compared to anticancer agent alone (doxorubicin 0, 5, 10 μM with chlorogenic acid 0, 5, 10, 20μ, absorbance 450 nm): 30%
